# Experimental data as given in patent US12371454B2, “Cyclic peptide compound having Kras inhibitory action” (priority 2019, dated 2025).
# Positions of bridges follow the written chain, without caps; N, C: chain ends. Non-standard residues stand in square brackets, D forms with d. Residues, ends and D or L forms follow the SMILES beside them. *: point of attachment. hPhe(3-Cl-4-CF3) = N[C@@H](CCc1ccc(C(F)(F)F)c(Cl)c1)C(=O)O; hPhe(4-CF3) = N[C@@H](CCc1ccc(C(F)(F)F)cc1)C(=O)O; NMePhe(4-Cl) = CN[C@@H](Cc1ccc(Cl)cc1)C(=O)O; NMeNle(6-CHF2) = CN[C@@H](CCCCC(F)F)C(=O)O; NMePhe(4-F) = CN[C@@H](Cc1ccc(F)cc1)C(=O)O; NMeGly(cPent) = CN[C@H](C(=O)O)C1CCCC1; Phe(3-I) = N[C@@H](Cc1cccc(I)c1)C(=O)O; NMe3Pal = CN[C@@H](Cc1cccnc1)C(=O)O; NMeY = CN[C@@H](Cc1ccc(O)cc1)C(=O)O; NMeCha = CN[C@@H](CC1CCCCC1)C(=O)O; NMeChg = CN[C@H](C(=O)O)C1CCCCC1; hPhe = N[C@@H](CCc1ccccc1)C(=O)O; NMeD = CN[C@@H](CC(=O)O)C(=O)O; NMeL = CN[C@@H](CC(C)C)C(=O)O; Cba = N[C@@H](CC1CCC1)C(=O)O; NMeV = CN[C@H](C(=O)O)C(C)C; d(β3hA) = C[C@@H](N)CC(=O)O; NMeA = CN[C@@H](C)C(=O)O; NMeAib = CNC(C)(C)C(=O)O; Nle = CCCC[C@H](N)C(=O)O; Piperidide = C1CCN(*)CC1; Pra = C#CC[C@H](N)C(=O)O; Pyrrolidide = C1CCN(*)C1; Ac5c = NC1(C(=O)O)CCCC1; Aze = O=C(O)[C@@H]1CCN1; Sar = CNCC(=O)O
# Target: T1, Kras and SOS1 (biotin-tagged human Kras loaded with GDP, His-tagged human SOS1) (Homo sapiens, UniProt P01116, G12D)
# T1 construct: made in house; host or cells: E. coli (stated for Kras only)
# Assay: Protein-protein interaction inhibition between Kras and SOS1 (KrasGl2D-SOS PPI) using AlphaScreen
# Type: binding
# Details: AlphaScreen; biotin-tagged human Kras loaded with GDP, His-tagged human SOS1; read-out: KRAS G12D-SOS PPI IC50
# Outline: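 Kras was produced in E. coli, purified, then loaded with GDP. It was paired via streptavidin acceptor beads with His-SOS1 held on nickel donor beads, and proximity signal at 520-620 nm was read after 680 nm illumination.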
# T1 sequence (P01116 1-188 isoform P01116-2 G12D): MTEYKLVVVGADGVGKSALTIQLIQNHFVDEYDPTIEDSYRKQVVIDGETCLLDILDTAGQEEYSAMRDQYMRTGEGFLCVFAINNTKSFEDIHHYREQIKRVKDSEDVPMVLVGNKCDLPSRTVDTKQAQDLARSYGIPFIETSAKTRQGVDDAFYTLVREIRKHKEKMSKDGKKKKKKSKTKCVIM
row,Compound,IC50
1,CC[C@H](C)[C@@H]1NC(=O)[C@H](CC(C)C)N(C)C(=O)C[C@@H](C)NC(=O)[C@H](C(C)C)N(C)C(=O)C2(CCCC2)NC(=O)[C@@H]2CCCN2C(=O)[C@H](CCc2ccc(C(F)(F)F)c(Cl)c2)NC(=O)CN(C)C(=O)[C@H](COc2ccccc2Cl)N(C)C(=O)CN(C)C(=O)CN(C)C1=O [Compound 1582],35 nM
2,CC[C@H](C)[C@@H]1NC(=O)[C@H](C)N(C)C(=O)C[C@@H](C(=O)N2CCCC2)NC(=O)[C@H](CC(C)C)N(C)C(=O)[C@H](CCCCC(F)F)N(C)C(=O)[C@H](CC(C)C)NC(=O)[C@H](CCc2ccc(C(F)(F)F)cc2)NC(=O)CN(C)C(=O)[C@H](Cc2ccc(Cl)cc2)N(C)C(=O)CN(C)C(=O)CN(C)C1=O [Compound 779] ([NMeA]I[Sar][Sar][NMePhe(4-Cl)][Sar][hPhe(4-CF3)]L[NMeNle(6-CHF2)][NMeL]D-Pyrrolidide; lactam N-11),160 nM
3,CC[C@H](C)[C@@H]1NC(=O)[C@H](C)N(C)C(=O)C[C@@H](C(=O)N2CCCCC2)N(C)C(=O)[C@H](C2CCCCC2)N(C)C(=O)C2(CCCC2)NC(=O)[C@H](Cc2cccnc2)N(C)C(=O)[C@H](CCc2ccc(C(F)(F)F)c(Cl)c2)NC(=O)CN(C)C(=O)[C@H](CC2CCCCC2)N(C)C(=O)[C@@H]2CCCN2C(=O)CN(C)C1=O [Compound 433] ([NMeA]I[Sar]P[NMeCha][Sar][hPhe(3-Cl-4-CF3)][NMe3Pal][Ac5c][NMeChg][NMeD]-Piperidide; lactam N-11),2.2 nM
4,CC[C@H](C)[C@@H]1NC(=O)[C@H](CC(C)C)N(C)C(=O)C[C@@H](C(=O)N2CCCCC2)N(C)C(=O)[C@H](C(C)C)N(C)C(=O)C2(CCCC2)NC(=O)[C@@H]2CCCN2C(=O)[C@H](CCc2ccccc2)NC(=O)CN(C)C(=O)[C@H](CC2CCCCC2)N(C)C(=O)CN(C)C(=O)CN(C)C1=O [Compound 265] ([NMeL]I[Sar][Sar][NMeCha][Sar][hPhe]P[Ac5c][NMeV][NMeD]-Piperidide; lactam N-11),280 nM
5,CC(C)C[C@H]1C(=O)N[C@@H](CC2CCC2)C(=O)N(C)CC(=O)N(C)CC(=O)N(C)[C@@H](CC2CCCCC2)C(=O)N(C)CC(=O)N[C@@H](CCc2ccc(C(F)(F)F)c(Cl)c2)C(=O)N2CCC[C@H]2C(=O)NC2(CCCC2)C(=O)N(C)[C@@H](C2CCCCC2)C(=O)N(C)[C@H](C(=O)N2CCCCC2)CC(=O)N1C [Compound 1759] ([NMeL][Cba][Sar][Sar][NMeCha][Sar][hPhe(3-Cl-4-CF3)]P[Ac5c][NMeChg][NMeD]-Piperidide; lactam N-11),2.7 nM
6,CCCC[C@@H]1NC(=O)[C@H](Cc2cccc(I)c2)NC(=O)CN(C)C(=O)[C@H](CC2CCCCC2)N(C)C(=O)[C@@H]2CCN2C(=O)CN(C)C(=O)[C@H]([C@@H](C)CC)NC(=O)[C@H](CC(C)C)N(C)C(=O)C[C@@H](C(=O)N2CCCCC2)N(C)C(=O)[C@H](CC(C)C)NC(=O)C(C)(C)N(C)C1=O [Compound 1420] ([NMeL]I[Sar][Aze][NMeCha][Sar][Phe(3-I)][Nle][NMeAib]L[NMeD]-Piperidide; lactam N-11),89 nM
7,CC[C@H](C)[C@@H]1NC(=O)[C@H](CC(C)C)N(C)C(=O)C[C@@H](C(=O)N2CCCCC2)N(C)C(=O)[C@H](C2CCCCC2)N(C)C(=O)C2(CCCC2)NC(=O)[C@@H](C)NC(=O)[C@H](CCc2ccc(C(F)(F)F)c(Cl)c2)NC(=O)CN(C)C(=O)[C@H](CC2CCCCC2)N(C)C(=O)CN(C)C(=O)CN(C)C1=O [Compound 277] ([NMeL]I[Sar][Sar][NMeCha][Sar][hPhe(3-Cl-4-CF3)][dA][Ac5c][NMeChg][NMeD]-Piperidide; lactam N-11),5.1 nM
8,CC[C@H](C)[C@@H]1NC(=O)[C@H](CC(C)C)N(C)C(=O)C[C@@H](C(=O)N(C)C)N(C)C(=O)[C@H](C2CCCC2)N(C)C(=O)C2(CCCC2)NC(=O)[C@@H](C)NC(=O)[C@H](CCc2ccc(C(F)(F)F)c(Cl)c2)NC(=O)CN(C)C(=O)[C@H](CC2CCCCC2)N(C)C(=O)[C@@H]2CCN2C(=O)[C@H](C)N(C)C1=O [Compound 191] ([NMeL]I[NMeA][Aze][NMeCha][Sar][hPhe(3-Cl-4-CF3)][dA][Ac5c][NMeGly(cPent)][NMeD]-NMe2; lactam N-11),3.4 nM
9,CC[C@H](C)[C@@H]1NC(=O)[C@H](C)N(C)C(=O)C[C@@H](C)NC(=O)[C@H](C(C)C)N(C)C(=O)C2(CCCC2)NC(=O)[C@@H]2CCCN2C(=O)[C@H](CCc2ccc(C(F)(F)F)c(Cl)c2)NC(=O)CN(C)C(=O)[C@H](Cc2ccc(F)cc2)N(C)C(=O)[C@@H]2CCCN2C(=O)CN(C)C1=O [Compound 1732] (cyclo([Ac5c][NMeV][d(β3hA)][NMeA]I[Sar]P[NMePhe(4-F)][Sar][hPhe(3-Cl-4-CF3)]P)),5.5 nM
10,C#CC[C@@H]1NC(=O)[C@H](Cc2cccc(I)c2)NC(=O)CN(C)C(=O)[C@H](Cc2ccc(OC)cc2)N(C)C(=O)CN(C)C(=O)CN(C)C(=O)[C@H]([C@@H](C)CC)NC(=O)[C@H](CC(C)C)N(C)C(=O)C[C@@H](C(=O)N2CCCCC2)N(C)C(=O)[C@H](CC(C)C)NC(=O)C(C)(C)N(C)C1=O [Compound 1169] ([NMeL]I[Sar][Sar][NMeY](Me)[Sar][Phe(3-I)][Pra][NMeAib]L[NMeD]-Piperidide; lactam N-11),53 nM
